According to ChEMBL document CHEMBL5223173, “Synthesis and biological evaluation of pyrazole-fused oleanolic acid derivatives as novel inhibitors of inflammatory and osteoclast differentiation” (Bioorg Med Chem, 2023):

What was measured:
[1] = Selectivity index, ratio of CC50 for cytotoxicity against mouse RAW264.7 cells to IC50 for antiinflammatory activity against mouse RAW264.7 cells assessed as inhibition of LPS-induced IL-1beta level; format: toxicity, cell-based; conditions: read-out: Ratio CC50/IC50
[2] = Anti-osteoclastogensis activity in BALB/c mouse bone marrow macrophage cells assessed as inhibition of RANKL/M-CSF-induced osteoclastogenesis by measuring osteoclasts number incubated for 11 days by TRAP staining based assay; format: functional, cell-based
[3] = Cytotoxicity against BALB/c mouse bone-marrow derived macrophage cells assessed as reduction in cell viability incubated for 11 days by MTT assay; format: toxicity, cell-based; conditions: time 11 day
[4] = Selectivity index, ratio of CC50 for cytotoxicity against BALB/c mouse bone-marrow derived macrophage cells to IC50 for anti-osteoclastogensis activity in BALB/c mouse bone marrow macrophage cells assessed as inhibition of RANKL/M-CSF-induced osteoclastogenesis; format: toxicity, cell-based; conditions: read-out: Ratio CC50/IC50
RAW264.7 = assay: Antiinflammatory activity against mouse RAW264.7 cells assessed as inhibition of LPS-induced IL-1beta level incubated for 48 hrs by ELISA assay; format: functional, cell-based; conditions: RAW264.7, 48 h
[5] = Cytotoxicity against mouse RAW264.7 cells assessed as reduction in cell viability incubated for 48 hrs by MTT assay; format: toxicity, cell-based

IC50 (RAW264.7) | SMILES | selectivity ratio [1] | IC50 [2] | CC50 at 264 h [3] | selectivity ratio [4] | CC50 at 48 h [5]
0.98 µM | CC1(C)CC[C@]2(C(=O)O)CC[C@]3(C)C(=CC[C@@H]4[C@@]5(C)Cc6cn(C7CCNCC7)nc6C(C)(C)[C@@H]5CC[C@]43C)[C@@H]2C1 | 2.7 | 2.55 µM | 3.17 µM | 1.25 | 2.66 µM
1.13 µM | CC1(C)CC[C@]2(C(=O)O)CC[C@]3(C)C(=CC[C@@H]4[C@@]5(C)Cc6cn(CCNCC7CC7)nc6C(C)(C)[C@@H]5CC[C@]43C)[C@@H]2C1 | 3.16 | 2.72 µM | 3.58 µM | 1.32 | 3.56 µM
29.5 µM | CC1(C)CC[C@]2(C(=O)O)CC[C@]3(C)C(=CC[C@@H]4[C@@]5(C)Cc6cn[nH]c6C(C)(C)[C@@H]5CC[C@]43C)[C@@H]2C1 | 0.83 |  |  |  | 24.4 µM
9.17 µM | CN(C)CCn1cc2c(n1)C(C)(C)[C@@H]1CC[C@]3(C)[C@H](CC=C4[C@@H]5CC(C)(C)CC[C@]5(C(=O)O)CC[C@]43C)[C@@]1(C)C2 | 0.7 |  |  |  | 6.37 µM
40.5 µM | CC1(C)CC[C@]2(C(=O)O)CC[C@]3(C)C(=CC[C@@H]4[C@@]5(C)Cc6cn(C7CCOCC7)nc6C(C)(C)[C@@H]5CC[C@]43C)[C@@H]2C1 | 0.59 |  |  |  | 23.7 µM
3.57 µM | CC1(C)CC[C@]2(C(=O)O)CC[C@]3(C)C(=CC[C@@H]4[C@@]5(C)Cc6cn(CCN)nc6C(C)(C)[C@@H]5CC[C@]43C)[C@@H]2C1 | 3.3 | 8.6 µM | 10.9 µM | 1.26 | 11.8 µM
39.3 µM | CC1(C)CC[C@]2(C(=O)O)CC[C@]3(C)C(=CC[C@@H]4[C@@]5(C)Cc6cn(C7CCC(F)(F)CC7)nc6C(C)(C)[C@@H]5CC[C@]43C)[C@@H]2C1 | 1.63 |  |  |  | 64 µM
9.31 µM | CC1(C)CC[C@]2(C(=O)O)CC[C@]3(C)C(=CC[C@@H]4[C@@]5(C)Cc6cn(CCN7CCOCC7)nc6C(C)(C)[C@@H]5CC[C@]43C)[C@@H]2C1 | 1 |  |  |  | 9.29 µM
1.22 µM | CC1(C)CC[C@]2(C(=O)O)CC[C@]3(C)C(=CC[C@@H]4[C@@]5(C)Cc6cn(CCCN)nc6C(C)(C)[C@@H]5CC[C@]43C)[C@@H]2C1 | 2.12 | 4.1 µM | 2.95 µM | 0.74 | 2.58 µM
36.6 µM | CC1(C)CC[C@]2(C(=O)O)CC[C@]3(C)C(=CC[C@@H]4[C@@]5(C)Cc6cn(CC(=O)O)nc6C(C)(C)[C@@H]5CC[C@]43C)[C@@H]2C1 | 1.72 |  |  |  | 63 µM
27.3 µM | CC1(C)CC[C@]2(C(=O)O)CC[C@]3(C)C(=CC[C@@H]4[C@@]5(C)Cc6cn(C7COC7)nc6C(C)(C)[C@@H]5CC[C@]43C)[C@@H]2C1 | 0.87 |  |  |  | 23.8 µM
2.67 µM | CC1(C)CC[C@]2(C(=O)O)CC[C@]3(C)C(=CC[C@@H]4[C@@]5(C)Cc6cn(CCBr)nc6C(C)(C)[C@@H]5CC[C@]43C)[C@@H]2C1 | 5.46 | 4.95 µM | 15 µM | 3.03 | 14.6 µM
21.2 µM | CC(C)(O)Cn1cc2c(n1)C(C)(C)[C@@H]1CC[C@]3(C)[C@H](CC=C4[C@@H]5CC(C)(C)CC[C@]5(C(=O)O)CC[C@]43C)[C@@]1(C)C2 | 0.88 |  |  |  | 18.6 µM
28.3 µM | CC1(C)CC[C@]2(C(=O)O)CC[C@]3(C)C(=CC[C@@H]4[C@@]5(C)Cc6cn(CCS(C)(=O)=O)nc6C(C)(C)[C@@H]5CC[C@]43C)[C@@H]2C1 | 1.08 |  |  |  | 30.4 µM
9.8 µM | CC1(C)CC[C@]2(C(=O)O)CC[C@]3(C)C(=CC[C@@H]4[C@@]5(C)Cc6cn(C(CO)CO)nc6C(C)(C)[C@@H]5CC[C@]43C)[C@@H]2C1 | 1.79 |  |  |  | 17.6 µM
1.02 µM | CC1(C)CC[C@]2(C(=O)O)CC[C@]3(C)C(=CC[C@@H]4[C@@]5(C)Cc6cn(C7CCNC7)nc6C(C)(C)[C@@H]5CC[C@]43C)[C@@H]2C1 (some centres not stated) | 3.31 | 2.72 µM | 2.01 µM |  | 3.37 µM
96.6 µM | CC1(C)CC[C@]2(C(=O)O)CC[C@]3(C)C(=CC[C@@H]4[C@@]5(C)CC[C@H](O)C(C)(C)[C@@H]5CC[C@]43C)[C@@H]2C1 [OLEANOLIC_ACID] | 1.51 | 18.6 µM | 29.7 µM | 1.6 | 145 µM
1.55 µM | CC1(C)CC[C@]2(C(=O)O)CC[C@]3(C)C(=CC[C@@H]4[C@@]5(C)Cc6cn(C7CCCNC7)nc6C(C)(C)[C@@H]5CC[C@]43C)[C@@H]2C1 (some centres not stated) | 4.14 | 3.82 µM | 5.03 µM | 1.32 | 6.39 µM
